Each block holds one compound with its values, some of them ahead of it. Active and inactive are the calls of the source.
How the values were obtained:
[1] = biological target: T1, Type-1 angiotensin II receptor (Homo sapiens, UniProt P30556); assay: AT1 receptor agonists, dose response, selectivity assay for APJ receptor agonist project, cell-based, uHTS hits (AID 488865); assay type: functional;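 also: beta-arrestin recruitment to AT1 measured by enzyme fragment complementation luminescence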
T1 sequence (P30556 whole entry): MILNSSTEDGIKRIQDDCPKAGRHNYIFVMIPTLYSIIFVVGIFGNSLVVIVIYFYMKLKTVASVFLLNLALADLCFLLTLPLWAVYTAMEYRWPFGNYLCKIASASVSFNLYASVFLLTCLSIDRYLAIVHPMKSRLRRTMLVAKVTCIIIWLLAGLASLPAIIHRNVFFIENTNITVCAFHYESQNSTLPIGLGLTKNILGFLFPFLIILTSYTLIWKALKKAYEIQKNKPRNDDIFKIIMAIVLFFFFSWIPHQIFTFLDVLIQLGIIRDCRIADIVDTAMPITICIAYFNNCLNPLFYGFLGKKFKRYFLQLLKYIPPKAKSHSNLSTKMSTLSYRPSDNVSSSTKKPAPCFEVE

H9c2 = assay: cells; assay type: functional, cell-based; conditions: Rattus norvegicus, H9c2, Myocardium;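 also: confirmatory concentration-response retest of ultra-high-throughput screening hits for modulation of myocardial damage; cell death induced by hydrogen peroxide oxidative stress; compound pretreatment for 60 min then peroxide exposure for 2 h; potency is for protecting the cells against peroxide damage rather than for killing them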
[2] = biological target: Intestinal-type alkaline phosphatase (Mus musculus, UniProt P24822); assay: PubChem AID 488875; assay type: functional
[3] = biological target: T2, Intestinal-type alkaline phosphatase (Homo sapiens, UniProt P09923); assay: human intestinal alkaline phosphatase activators, dose response, biochemical, luminescence, uHTS hits (AID 463120); assay type: functional
[4] = biological target: T3, Alkaline phosphatase, tissue-nonspecific isozyme (Homo sapiens, UniProt P05186); assay: TNAP enzyme activators, dose response, selectivity assay for human IAP activator project, biochemical, TNAP isozyme, human IAP uHTS hits (AID 488886); assay type: functional;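 also: potency of compounds raising TNAP activity as a selectivity check on IAP activators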
T3 sequence (P05186 whole entry): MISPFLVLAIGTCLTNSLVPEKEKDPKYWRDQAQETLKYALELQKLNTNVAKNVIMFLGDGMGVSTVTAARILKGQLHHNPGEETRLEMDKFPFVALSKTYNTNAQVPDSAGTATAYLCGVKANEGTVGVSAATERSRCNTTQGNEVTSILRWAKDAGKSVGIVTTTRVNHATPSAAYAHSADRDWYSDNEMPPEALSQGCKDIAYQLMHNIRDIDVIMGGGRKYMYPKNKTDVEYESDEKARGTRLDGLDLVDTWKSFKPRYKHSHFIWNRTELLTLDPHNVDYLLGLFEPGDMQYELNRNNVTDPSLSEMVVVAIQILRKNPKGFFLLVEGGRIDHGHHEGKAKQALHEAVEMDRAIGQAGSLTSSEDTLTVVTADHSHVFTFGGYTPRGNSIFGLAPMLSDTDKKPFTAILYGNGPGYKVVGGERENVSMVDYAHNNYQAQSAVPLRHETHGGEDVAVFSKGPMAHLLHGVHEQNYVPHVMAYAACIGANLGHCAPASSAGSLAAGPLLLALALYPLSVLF

[5] = HEp-2 cell cytotoxicity, dose response, cytotoxicity control for RSV inhibitor project, HTS (AID 2410); assay type: functional; conditions: human respiratory syncytial virus
[6] = biological target: T2, Intestinal-type alkaline phosphatase; assay: human IAP activators, dose response, biochemical, luminescent, uHTS hits, set 2 (AID 488817); assay type: functional;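 also: potency of activators that raise enzyme activity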
[7] = biological target: G-protein coupled receptor 55 (Homo sapiens, UniProt Q9Y2T6); assay: GPR55 antagonists blocking LPI-driven arrestin recruitment, primary screen, imaging, U2OS, beta-arrestin-GFP, LPI agonist (AID 2013); assay type: functional;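 also: antagonist potency measured as reduced agonist-driven arrestin aggregation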
Chain of G-protein coupled receptor 55 (Q9Y2T6 whole entry): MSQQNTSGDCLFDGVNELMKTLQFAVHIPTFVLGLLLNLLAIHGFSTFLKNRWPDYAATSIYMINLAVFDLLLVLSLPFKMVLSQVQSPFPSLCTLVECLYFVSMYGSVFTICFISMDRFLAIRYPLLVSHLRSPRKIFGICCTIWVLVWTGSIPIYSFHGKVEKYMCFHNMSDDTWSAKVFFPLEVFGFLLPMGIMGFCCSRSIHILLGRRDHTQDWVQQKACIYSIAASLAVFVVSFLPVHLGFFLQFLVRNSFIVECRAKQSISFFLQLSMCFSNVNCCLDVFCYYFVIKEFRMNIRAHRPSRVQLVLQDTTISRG

T2 sequence (P09923 whole entry): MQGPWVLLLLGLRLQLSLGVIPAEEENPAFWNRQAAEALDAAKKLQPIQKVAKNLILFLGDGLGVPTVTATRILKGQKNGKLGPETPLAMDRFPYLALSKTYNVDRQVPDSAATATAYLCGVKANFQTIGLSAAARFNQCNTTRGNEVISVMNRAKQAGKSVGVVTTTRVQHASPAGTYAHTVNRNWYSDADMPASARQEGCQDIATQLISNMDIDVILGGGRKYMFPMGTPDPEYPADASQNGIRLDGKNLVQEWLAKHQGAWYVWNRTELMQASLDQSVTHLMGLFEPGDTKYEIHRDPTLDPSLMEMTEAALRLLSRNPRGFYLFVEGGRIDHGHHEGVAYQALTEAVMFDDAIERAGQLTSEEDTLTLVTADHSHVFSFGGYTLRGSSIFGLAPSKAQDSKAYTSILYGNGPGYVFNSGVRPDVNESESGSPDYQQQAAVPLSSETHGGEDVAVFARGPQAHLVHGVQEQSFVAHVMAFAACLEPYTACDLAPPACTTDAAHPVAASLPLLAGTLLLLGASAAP
Chain of Intestinal-type alkaline phosphatase (Mus musculus, UniProt P24822) (P24822 whole entry): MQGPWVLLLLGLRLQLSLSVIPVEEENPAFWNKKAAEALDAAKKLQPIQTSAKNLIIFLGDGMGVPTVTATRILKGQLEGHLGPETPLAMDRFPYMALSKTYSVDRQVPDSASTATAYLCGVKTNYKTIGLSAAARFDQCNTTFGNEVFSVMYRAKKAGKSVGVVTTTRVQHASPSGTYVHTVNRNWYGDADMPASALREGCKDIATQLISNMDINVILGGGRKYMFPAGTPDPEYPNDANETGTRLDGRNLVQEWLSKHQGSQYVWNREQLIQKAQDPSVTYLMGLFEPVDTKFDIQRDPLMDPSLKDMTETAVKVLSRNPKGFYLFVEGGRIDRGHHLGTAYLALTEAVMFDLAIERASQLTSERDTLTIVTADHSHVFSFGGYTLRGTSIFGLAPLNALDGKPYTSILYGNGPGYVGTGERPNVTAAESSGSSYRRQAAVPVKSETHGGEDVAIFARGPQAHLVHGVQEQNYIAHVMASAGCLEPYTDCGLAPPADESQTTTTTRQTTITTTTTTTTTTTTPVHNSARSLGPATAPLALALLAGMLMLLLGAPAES

SMILES: CCOc1ccc2nc(O)c(CN(Cc3ccco3)C(CC)c3nnnn3Cc3ccccc3)cc2c1 (stereo not drawn)
- EC50 [1]: > 100 µM (inactive)
- IC50 (H9c2): > 79 µM (inactive)

- EC50 [2]: > 100 µM (inactive)
- EC50 [3]: 23.1 µM (active)
- EC50 [4]: 53.2 µM (active)
- EC50 [6]: 65.5 µM (active)
SMILES: COc1ccccc1CCNC(=O)C1CCN(c2nnc(C)c3c(C)n(-c4ccc(C)cc4)nc23)CC1
- CC50 [5]: 17.4 µM (active)

- IC50 [7]: 4.61 µM (active)
SMILES: Nc1ncc(-c2nnnn2-c2ccc(Cl)cc2)c(-c2ccc(Cl)cc2)n1

From ChEMBL document CHEMBL1201862, “PubChem BioAssay data set” (2004)
